Data published in patent US20110086891A1, “Solid Forms of 2-(2,4-Difluorophenyl)-6-(1-(2,6-Difluorophenyl)Ureido)Nicotinamide)” (Vertex Pharmaceuticals Incorporated, priority 2009, published 2011).
≈ marks a conversion by molar mass, not a printed value. Entries after “also recorded” stand apart in the source; their conditions may differ.

Legend:
Assay type in all cases: physicochemical
[1] = Apparent solubilities of Form A at room temperature and at 60° C.; details: thermodynamic from solid
[2] = Stability studies at 40° C./75% RH (physical and chemical stability, XRPD)
Text: In some embodiments, less than 25% of the solid form of Compound I decomposes, in some embodiments, less than about 20%, less than about 15%, less than about 10%, less than about 5%, less than about 3%, less than about 1%, less than about 0.5% of the form of Compound I decomposes under the conditions specified. In some embodiments, no detectable amount of the solid form of Compound I decomposes. […] In some embodiments, less than 25% of the solid form of Compound I changes into one or more different physical forms when subjected to specified conditions. In some embodiments, less than about 20%, less than about 15%, less than about 10%, less than about 5%, less than about 3%, less than about 1%, less than about 0.5% of the solid form of Compound I changes into one or more different physical forms of Compound I when subjected to specified conditions. In some embodiments, no detectable amount of the solid form of Compound I changes into one or more physically different solid forms of Compound I.

[3] = Solid form conversion on heating, cooling, storage, slurrying or addition of water (XRPD, VT-XRD); details: for form conversion upon slurrying in a non-solvate forming solvent: slurry, MeOH and water (MeOH:H2O 1:1)
Procedure: Another form, Form P, was detected during the MeOH re-crystallization step used to prepare Form C from Form A. Form P is characterized below. When variable-temperature X-Ray diffraction (VT-XRD) of Form P was carried out in 5° C. increments from 25 to 50° C. and the resulting solid was cooled back to ambient conditions, it was observed that Form P transitions to Form A at approximately 40° C. and returns to Form P upon cooling back to room temperature. […] Both Form A and Form P are MeOH solvates.
1. Bruker D8 Discover with HighStar array detector with an accelerator voltage of 40 kV and current of 35 mA over a 120 second acquisition time. Each sample was prepared in a nickel sample holder and the subsequent pattern collected over two frames with a 2θ range of 4-41°. Variable temperature X-Ray diffraction (VT-XRD) was accomplished with a DHS900 Anton Paar heating stage with a TCU150 controller with a heating rate between steps of 10° C./min and an equilibration time of 5 minutes at temperature. 2. Siemens D5000 diffractometer using CuKα radiation (40 kV, 40 mA), θ-θ goniometer, automatic divergence and receiving slits, a graphite secondary monochromator and a scintillation counter. The data were collected over an angular 2 theta range of 2° to 42° in continuous scan mode using a step size of 0.02° and a step time of 1 second. Samples were run under ambient conditions and prepared as flat plate specimens using powder as received without grinding. Approximately 1-2 mg of the sample was slightly pressed on a glass slide to obtain a flat surface. Samples run under non-ambient conditions were mounted on a silicon wafer with heat conducting compounds. The sample was then heated to the appropriate temperature at ca. 20° C./min and subsequently held isothermally for ca 1 minute before data collection was initiated. 3. Bruker AXS C2 GADDS Diffractometer using CuKα radiation (40 kV, 40 mA), automated XYZ stage, laser video microscope for auto-sample positioning and a HiStar 2-dimensional area detector. X-Ray optics consists of a single Gobel multilayer mirror coupled with a pinhole collimator of 0.3 mm. Beam divergence, was approximately 4 mm. A θ-θ continuos scan mode was employed with a sample to detector distance of 20 cm which gives an effective 2θ range of 3.2-29.8°. A typical exposure time of a sample in this system would be 120 s. Samples were run under ambient conditions and prepared as flat plate specimens using powder as received without grinding. Approximately 25-50 mg of the sample was gently packed into 12 mm diameter, 0.5 mm deep cavities cut into polished, zero-background (510) silicon wafers (from The Gem Dugout). All specimens were run both stationary and rotated on their own plate during analysis. A further specimen was run using silicon powder as internal standard to correct for any peak displacement. Diffraction data were reported using Cu Kαl (l=1.5406 Å), after the Kαl component had been stripped using EVA, the powder patterns were indexed by the ITO method using WIN-INDEX and the raw lattice constants refined using WIN-METRIC. 4. Shimadzu XRD-6000 X-Ray powder diffractometer using CuKα radiation (40 kV, 40 mA) equipped with a fine-focus X-Ray tube. Divergence and Scattering slids were set at 1° and the receiving slit was set at 0.15 mm. A NaI scintillation detector detected diffracted irradiation. A θ-2θ continuous scan at 3°/min (0.4 sec/0.02° step) from 2.5° to 40° was used. A silicon standard was analyzed each day to check the instrument alignment. Each sample was prepared for analysis by pressing it onto the sample holder. 5. Inel XRG-3000 X-Ray powder diffractometer using CuKα radiation (40 kV, 30 mA). This was equipped with a curved position-sensitive detector. Data was collected in real time over a 2 θ range of 120° at a resolution of 0.03°. Samples were packed in an aluminum holder with a silicon insert and analyzed. A silicon standard was analyzed each day to check for instrument alignment. […]

[4] = Relative stability studies: slurrying 1:1 mixtures of forms in 3:1 water:ethanol at various temperatures; details: slurry in 3:1 water:ethanol
Procedure: 1:1 mixtures of Form C and form G of Compound I were slurried in 3:1 water:ethanol at a range of temperatures to determine the relative stability at different temperatures. 5 mg of Form C was mixed with 5 mg of Form G in a glass vial. 1.0 ml of 3:1 water:ethanol was added and the resulting slurry was stirred at 5° C. for 10 days. The resulting solid was isolated by filtration and analysed by XRPD (see FIG. 17).
(§1) The above procedure was repeated at 25, 50 and 80° C.
1:1 mixtures of Form C and Form F were slurried in 3:1 water:ethanol at a range of temperatures to determine the relative stability at different temperatures. […] Ethanol was used in addition to water in order to increase the amount of Compound I in solution and so increase the rate of conversion between forms. Ethanol was chosen as no ethanol solvate of Compound I was known. 10 mg of Form C was mixed with 10 mg of Form F in a glass vial. 2.0 ml of 3:1 water:ethanol was added and the resulting slurry was stirred at 5° C. for 24 hours. Solid was isolated by filtration and analysed by XRPD.
as §1
1:1 mixtures of Form F and Form G were slurried in 3:1 water:ethanol at a range of temperatures to determine the relative stability at different temperatures. 10 mg of Form F was mixed with 10 mg of Form G in a glass vial. 2.0 ml of 3:1 water:ethanol was added and the resulting slurry was stirred at 5° C. for 24 hours. The resulting solid was isolated by filtration and analysed by XRPD. The above procedure was repeated at 25, 50 and 70° C. 70° C. was used instead of 80° C. in an attempt to reduce degradation.

[5] = Gravimetric vapour sorption (GVS) studies
Procedure: All samples were run on a Hiden IGASorp moisture sorption analyzer running CFRSorp software. Sample sizes were typically 10 mg. A moisture absorption-desorption isotherm was performed as outlined below in Table X (2 scans giving 1 complete cycle). All samples were loaded/unloaded at typical room humidity and temperature (40% RH, 25° C.). All samples were analysed by XRPD post GVS analysis. The standard isotherm was performed at 25° C. at 10% RH intervals over a 0-90% RH range.

[6] = Solubility analysis (in water); details: 25° C.
Procedure: This was measured by suspending enough Compound I in 0.25 mL of solvent (water) to give a maximum final concentration of ≧10 mg/ml of the parent free form of the compound. The suspension was equilibrated at 25° C. for 24 hrs followed by a pH check and filtration through a glass fibre C96 well plate. The filtrate was then diluted down by a factor of 101. Quantitation was by HPLC (Table XI) with reference to a standard, diluted and undiluted tests were injected. The solubility was calculated by integration of the peak area found at the same retention time as the peak maximum in the standard injection. If there is sufficient solid in the filter plate the XRPD is normally checked for phase changes, hydrate formation, amorphization, crystallization, etc.

NC(=O)c1ccc(N(C(N)=O)c2c(F)cccc2F)nc1-c1ccc(F)cc1F [Form A, 2-(2,4-difluorophenyl)-6-(1-(2,6-difluorophenyl)ureido)nicotinamide•MeOH]
solubility ([1]; organic solvent or mixture, 60° C., 1-Butanol): 2900 µg/mL (≈ 7.17 mM)
solubility ([1]; organic solvent or mixture, 60° C., Butyl Acetate): 1900 µg/mL (≈ 4.7 mM)
solubility ([1]; organic solvent or mixture, room temperature, 1-Butanol): 2000 µg/mL (≈ 4.95 mM)
solubility ([1]; organic solvent or mixture, room temperature, 2-Butanone): 3400 µg/mL (≈ 8.41 mM)
solubility ([1]; organic solvent or mixture, room temperature, 2-Propanol): < 800 µg/mL
solubility ([1]; organic solvent or mixture, room temperature, 2-Propyl Acetate): 2900 µg/mL (≈ 7.17 mM)
solubility ([1]; organic solvent or mixture, room temperature, Acetone): 6400 µg/mL (≈ 15.8 mM)
solubility ([1]; organic solvent or mixture, room temperature, Acetonitrile): 3800 µg/mL (≈ 9.4 mM)
solubility ([1]; organic solvent or mixture, room temperature, Dimethylformamide): > 100000 µg/mL
solubility ([1]; organic solvent or mixture, room temperature, Ethanol): 5700 µg/mL (≈ 14.1 mM)
solubility ([1]; organic solvent or mixture, room temperature, Ethyl Acetate): 7200 µg/mL (≈ 17.8 mM)
solubility ([1]; organic solvent or mixture, room temperature, Heptane): < 900 µg/mL
solubility ([1]; organic solvent or mixture, room temperature, Methanol): 5700 µg/mL (≈ 14.1 mM)
solubility ([1]; organic solvent or mixture, room temperature, Methylene Chloride): < 800 µg/mL
solubility ([1]; organic solvent or mixture, room temperature, Tetrahydrofuran): 1500 µg/mL (≈ 3.71 mM)
solubility ([1]; room temperature, Water): < 900 µg/mL
results of stability studies as seen by XRPD (before and after spectra) [2]: before and after spectra illustrate formation of Form C
form conversion upon storage ([2]; 40° C./75% RH): become Form C described herein after one to four weeks; also recorded: convert to Form C upon storage at 40° C./75% RH for one week or longer
form conversion on cooling ([3]; cooling): convert to Form P upon cooling below about 50 °C
form conversion on heating [3]: become crystalline Form C upon heating to 100 °C
form conversion upon slurrying in a non-solvate forming solvent [3]: become crystalline Form C

NC(=O)c1ccc(N(C(N)=O)c2c(F)cccc2F)nc1-c1ccc(F)cc1F [Form F, 2-(2,4-difluorophenyl)-6-(1-(2,6-difluorophenyl)ureido)nicotinamide]
time remaining chemically stable ([2]; 40° C./75% RH): at least 2 weeks
time remaining in substantially the same physical form ([2]; 40° C./75% RH): at least 2 weeks
fate of the form on slurrying [4]: At 5 and 25° C., Form F was observed to convert to Form G; also recorded: not recovered after slurrying at any of the four temperatures
total weight gain in water at 40% RH ([5]; 40% RH): 1%
weight gain in water at 90% RH [5]: 1.1%
solubility in water [6]: at least 0.021 mg/mL

NC(=O)c1ccc(N(C(N)=O)c2c(F)cccc2F)nc1-c1ccc(F)cc1F [Form G, 2-(2,4-difluorophenyl)-6-(1-(2,6-difluorophenyl)ureido)nicotinamide]
results of stability studies as seen by XRPD (before and after spectra) [2]: before and after spectra are similar
time remaining chemically stable ([2]; 40° C./75% RH): at least two
time remaining in substantially the same physical form ([2]; 40° C./75% RH): at least two
relative stability between forms [4]: more stable than Form F at 5 °C
form conversion after the addition of water ([3]; 20° C. to 50° C., 2, 5 and 24 hours after addition of water): convert into Form Q
form conversion on heating [3]: converted into Form F on heating above about 130 °C
hygroscopicity [5]: highly hygroscopic
total water gain (in weight) at 10% RH ([5]; 10% RH): 1%
weight gain in water at 90% RH [5]: more than 8%
solubility in water [6]: at least 0.020 mg/mL

NC(=O)c1ccc(N(C(N)=O)c2c(F)cccc2F)nc1-c1ccc(F)cc1F [Form P, 2-(2,4-difluorophenyl)-6-(1-(2,6-difluorophenyl)ureido)nicotinamide•MeOH]
results of stability studies as seen by XRPD (before and after spectra) [2]: before and after spectra illustrate formation of Form C
temperature of transition of Form P to Form A ([3]; VT-XRD, 5° C. increments from 25 to 50° C.): approximately 40 °C
form conversion on heating [3]: convert to Form A upon heating to 50 °C and then to Form C upon heating to 100 °C
relative stability of Form A and Form P ([3]; room temperature, VT-XRD): the more stable of the two at room temperature
form conversion upon slurrying in a non-solvate forming solvent [3]: convert to Form C
